What was measured:
INDY [1] = molecular target: T1, INDY (Homo sapiens, UniProt Q86YT5); experiment: 14C-citrate uptake in HepG2 cells endogenously expressing INDY (NaCT); type: cell-based; conditions: endogenous INDY
Outline: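 HepG2 cells, which express INDY endogenously, were preincubated with compound for 5 min at 37 °C in pH 6.5 Na+ citrate uptake buffer. 14C-citrate ([…]) was then added for 90 min at 37 °C. After washing and NaOH lysis, uptake was measured by scintillation counting, with 5 mM citrate as positive control.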

GLUT1 = molecular target: T2, GLUT1 (Homo sapiens, UniProt P11166); experiment: 3H-glucose uptake counter assay in Huh7 cells endogenously expressing GLUT1; type: cell-based; conditions: endogenous GLUT1
T2 construct: Huh-7 cells which endogenously express GLUT1; endogenous in cells; host or cells: Huh-7
T2 sequence (P11166 1-492): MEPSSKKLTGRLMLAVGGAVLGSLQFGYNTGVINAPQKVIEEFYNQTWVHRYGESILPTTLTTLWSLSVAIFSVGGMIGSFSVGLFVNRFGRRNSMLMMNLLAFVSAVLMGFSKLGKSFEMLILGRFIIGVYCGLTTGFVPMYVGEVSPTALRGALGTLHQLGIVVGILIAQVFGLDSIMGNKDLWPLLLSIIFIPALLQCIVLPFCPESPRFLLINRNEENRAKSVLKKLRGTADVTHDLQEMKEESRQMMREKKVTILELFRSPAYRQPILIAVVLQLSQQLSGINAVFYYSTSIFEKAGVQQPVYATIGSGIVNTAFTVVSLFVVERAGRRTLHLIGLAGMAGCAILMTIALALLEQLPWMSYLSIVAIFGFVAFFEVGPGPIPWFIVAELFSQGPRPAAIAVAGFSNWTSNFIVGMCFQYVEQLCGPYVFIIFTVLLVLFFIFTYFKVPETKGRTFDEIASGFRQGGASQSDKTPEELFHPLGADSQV
Procedure: (§1) The compound was obtained by screening of a library containing more than 50,000 lead-like compounds and fragments. The library was tested using a functional citrate uptake assay with HEK293 cells overexpressing recombinant human INDY. The following hit confirmation was conducted in the same assay system. To confirm the activity of selected compounds on the target INDY another cell assay was conducted. In this assay system citrate uptake was measured using HepG2 cells which endogenously express INDY. Furthermore selectivity of selected compounds was tested for two other transporters in different assay systems. The first transporter was the glutamate transporter GLT-1 tested in a glutamate uptake assays using HEK293 cells overexpressing recombinant human GLT-1. The second transporter was the glucose transporter GLUT1 tested in a glucose uptake assay using Huh-7 cells which endogenously express GLUT1. Compounds were considered to be selective with an at least 5-fold higher activity for INDY than for the other two transporters.
Cells were maintained in cell medium using cell culture grade flasks (CellSTACK Corning, 500 cm2 dishes or T175 depending on cell number). The selection antibiotic and G418 (800 μg/ml) was added during cultivation but not for seeding into assay plates. For splitting, cells were washed with PBS (w/o Ca2+, Mg2+, phenol red) and detached with Trypsin/EDTA. Throughout cultivation cells were kept sub-confluent. Detached cells (50,000 cells/well) were seeded in 96-well plates (white, clear bottom from Corning #655098) and incubated over night before usage in the assay. The following media were used. For HEK293 cells expressing INDY MEM (PAA)+10% FCS+1×P/S+2 mM L-Gln; for HEK293 cells expressing GLT-1 DMEM (Gibco)+10% FCS+400 µg/ml G418; for Huh7 cells DMEM (Gibco)+10% FCS+2 mM L-Gin (+1×P/S); for HepG2 cells MEM (PAA, Cat # E15-024)+10% FCS+2 mM L-Gin+1×NEAA+1 mM Na-Pyruvat […]
Glucose uptake in Huh7 cells was measured as a counter assay. […] After 20 min incubation at RT plates were measured using TopCount system, Perkin Elmer. […]

GLT-1 = molecular target: T3, GLT-1 (Homo sapiens, UniProt P43004); experiment: 3H-glutamate uptake counter assay in HEK293 cells overexpressing human GLT-1; type: cell-based
T3 construct: host or cells: HEK293 (virus made in GP293 packaging cells)
Procedure: as §1
Cells were maintained in cell medium using cell culture grade flasks (CellSTACK Corning, 500 cm2 dishes or T175 depending on cell number). The selection antibiotic and G418 (800 μg/ml) was added during cultivation but not for seeding into assay plates. For splitting, cells were washed with PBS (w/o Ca2+, Mg2+, phenol red) and detached with Trypsin/EDTA. Throughout cultivation cells were kept sub-confluent. Detached cells (50,000 cells/well) were seeded in 96-well plates (white, clear bottom from Corning #655098) and incubated over night before usage in the assay. The following media were used. For HEK293 cells expressing INDY MEM (PAA)+10% FCS+1×P/S+2 mM L-Gln; for HEK293 cells expressing GLT-1 DMEM (Gibco)+10% FCS+400 µg/ml G418; for Huh7 cells DMEM (Gibco)+10% FCS+2 mM L-Gin (+1×P/S); for HepG2 cells MEM (PAA, Cat # E15-024)+10% FCS+2 mM L-Gin+1×NEAA+1 mM Na-Pyruvat
The following assay buffers for the particular uptake reaction were used. Citrate uptake buffer: 120 mM NaCl, 5.4 mM KCl, 0.8 mM MgSO4, 5 mM glucose, 1.8 mM CaCl2, 25 mM Hepes, 25 mM MES, pH 6.5. Glutamate uptake buffer: HBSS, 1 mM CaCl2, 1 mM MgCl2, 20 mM Hepes pH 7.4. Glucose uptake buffer: 25 mM Hepes+25 mM MES pH 7.4, 120 mM NaCl, 5.4 mM KCl, 1.8 mM CaCl2, 0.8 mM MgSO4.
As a counter assay, Glutamate uptake by the GLT-1 transporter was used. The principle of the assay is to measure the uptake of ^3H labelled glutamate into HEK cells, which overexpress human GLT-1.
The generation of a GLT-1 cell line was performed as follows: human GLT11 isoform sv1 cDNA (Origene # RC223924) was cloned into vector pFB-Neo-CMV-hGLT1 using QIAfilter Plasmid Midi Kit (Qiagen). Virus was generated in GP293 packaging cells (transfection of plasmid with Lipofectamine 2000+OptiMEM). For transfection into HEK cells GP293, supernatant containing virus was passed through a 0.45 micron sterile filter and DEAE-dextran was added at […] final concentration. The solution was used to transfect HEK293 cells at 37° C., 8.5% CO2. After 24 h selection marker G418 at 400 μg/ml was added and cultivation medium performed in DMEM 10% FBS.
The assay was performed in a 96-well format using repeated washing steps, cell lysis and addition of scintillation fluid. Assay buffer was HBSS, 1 mM CaCl2, 1 mM MgCl2, […] pH 7.4. Cells were seeded into white clear-bottom 96-well plates (50,000/well) in the presence of Poly-D-Lysine and incubated at 37° C. for 16-24 hours. Subsequently the plates were washed once with assay buffer using automated washing/LS 405 Selectors, BioTek ending with a buffer volume of 40 μl. Then 5 μl of compound solution in assay buffer was added and incubated for 20 min at 37° C. in cell incubator, HERA cell Heraeus. Afterwards 10 μl of substrate 3H-Glu (3 nM) were added and incubated for another 20 min at 37° C. in cell incubator, HERAcell. Then the plates were washed once with 200 μl cold assay buffer and 150 μl scintillation fluid was added. […]

INDY [2] = molecular target: T1, INDY; experiment: 14C-citrate uptake in HEK293 cells overexpressing recombinant human INDY (NaCT); type: cell-based; set-up: expressed in transfected cells; host or cells: HEK293
Outline: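 HEK293 cells overexpressing human NaCT, 50,000/well, preincubated 5-30 min at 37 °C with compound in pH 6.5 Na+ buffer. 14C-citrate ([…]) uptake then ran 20-90 min at 37 °C, followed by ice-cold washes, NaOH lysis and scintillation counting. 10 mM citrate served as positive control.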

Indy [3] = conditions: at 0.1 mM; cited from earlier work

T1 sequence (Q86YT5 whole entry): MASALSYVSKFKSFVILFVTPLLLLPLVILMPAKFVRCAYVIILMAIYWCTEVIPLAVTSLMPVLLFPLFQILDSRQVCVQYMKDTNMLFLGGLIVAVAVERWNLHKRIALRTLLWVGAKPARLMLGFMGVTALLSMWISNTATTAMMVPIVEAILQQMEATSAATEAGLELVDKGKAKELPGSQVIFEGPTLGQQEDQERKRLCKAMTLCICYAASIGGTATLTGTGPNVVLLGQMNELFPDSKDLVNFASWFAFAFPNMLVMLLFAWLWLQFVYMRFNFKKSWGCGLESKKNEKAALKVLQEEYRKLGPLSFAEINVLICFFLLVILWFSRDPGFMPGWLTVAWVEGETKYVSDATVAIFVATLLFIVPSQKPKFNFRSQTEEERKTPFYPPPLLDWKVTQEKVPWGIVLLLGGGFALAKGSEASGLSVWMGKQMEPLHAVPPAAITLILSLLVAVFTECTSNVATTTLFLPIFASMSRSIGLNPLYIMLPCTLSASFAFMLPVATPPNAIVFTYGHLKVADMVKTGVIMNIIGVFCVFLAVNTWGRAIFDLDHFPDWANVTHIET
T3 sequence (P43004 whole entry): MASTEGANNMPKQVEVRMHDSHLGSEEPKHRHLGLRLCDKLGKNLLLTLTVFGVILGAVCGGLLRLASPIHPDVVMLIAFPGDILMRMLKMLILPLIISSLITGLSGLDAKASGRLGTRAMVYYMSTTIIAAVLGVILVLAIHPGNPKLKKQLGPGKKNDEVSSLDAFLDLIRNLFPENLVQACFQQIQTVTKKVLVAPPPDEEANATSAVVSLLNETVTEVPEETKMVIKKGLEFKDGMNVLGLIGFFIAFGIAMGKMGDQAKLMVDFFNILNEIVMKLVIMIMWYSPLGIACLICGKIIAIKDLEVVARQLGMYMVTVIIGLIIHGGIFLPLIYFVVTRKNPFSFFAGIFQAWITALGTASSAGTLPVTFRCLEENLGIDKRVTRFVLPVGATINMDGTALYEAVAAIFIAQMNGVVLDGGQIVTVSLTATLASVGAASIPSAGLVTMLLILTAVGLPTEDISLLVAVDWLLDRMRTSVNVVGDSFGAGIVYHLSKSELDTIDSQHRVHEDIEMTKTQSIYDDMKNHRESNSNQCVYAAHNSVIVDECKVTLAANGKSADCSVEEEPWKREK

Row | Compound | IC50 (INDY [1]) [nM] | IC50 (GLUT1) [nM] | IC50 (GLT-1) [nM] | IC50 (INDY [2]) [nM] | inhibition of Indy (Indy [3])
1 | O=C(NCc1ccccc1F)C1CN(S(=O)(=O)/C=C/c2ccccc2)C1 [Example 1, N-[(2-fluorophenyl)methyl]-1-[(E)-phenylethenesulfonyl]azetidine-3-carboxamide] | 5400 | > 50000 | – | – | –
2 | O=C(NCc1ccccc1F)C1CCN(S(=O)(=O)c2ccccc2)CC1 [Example 6, N-[(2-fluorophenyl)methyl]-1-(benzenesulfonyl) piperidine-4-carboxamide] | 5700 | > 50000 | > 50000 | – | –
3 | CC(C)(C)c1ccc(S(=O)(=O)N2CCC(C(=O)NCc3ccccn3)CC2)cc1 [Example 37, 1-(4-tert-butylbenzenesulfonyl)-N-[(pyridin-2-yl)methyl]piperidine-4-carboxamide] | 1100 | – | > 20000 | 800 | –
4 | CC(C)(C)c1ccc(S(=O)(=O)N2CC(C(=O)NCc3ccccc3Cl)C2)cc1 [Example 49, 1-(4-tert-butylbenzenesulfonyl)-N-[(2-chlorophenyl)methyl]azetidine-3-carboxamide] | 9000 | – | > 20000 | 6400 | –
5 | Cc1cc(C)cc(S(=O)(=O)N2CCC(C(=O)NCc3ccccn3)CC2)c1 [Example 60, 1-(3,5-dimethylbenzenesulfonyl)-N-[(pyridin-2-yl)methyl]piperidine-4-carboxamide] | 700 | – | > 20000 | 1300 | –
6 | O=C(NCc1ccccn1)C1CCN(S(=O)(=O)c2ccc(Cl)cc2Cl)CC1 [Example 73, 1-(2,4-dichlorobenzenesulfonyl)-N-[(pyridin-2-yl)methyl]pipendine-4-carboxamide] | 1600 | – | > 20000 | 2400 | –
7 | [N-]=[N+]=NCc1ccccc1CNC(=O)C1CCN(S(=O)(=O)c2cc(Cl)cc(Cl)c2)CC1 [Example 92, N-([2-(azidomethyl)phenyl]methyl)-1-(3,5-dichlorobenzenesulfonyl)piperidine-4-carboxamide] | 800 | – | > 20000 | 1000 | –
8 | CC(C)c1ccc(S(=O)(=O)N2CCC(C(=O)NCc3ccccn3)CC2)cc1 [Example 111, 1-[4-(propan-2-yl)benzenesulfonyl]-N-[(pyridin-2-yl)methyl]piperidine-4-carboxamide] | 5200 | – | > 20000 | 2700 | –
9 | CC(F)c1cccc(S(=O)(=O)N2CCC(C(=O)NCc3ccccc3F)CC2)c1 (centres unmarked) [Example 112, 1-[3-(1-fluoroethyl)benzenesulfonyl]-N-[(2-fluorophenyl)methyl]piperidine-4-carboxamide] | 900 | – | > 20000 | 1400 | –
10 | O=C(NCc1ccc(F)cc1)C1CCN(S(=O)(=O)c2cc(Cl)cc(Cl)c2)CC1 [Example 132, 1-(3,5-dichlorobenzenesulfonyl)-N-[(4-fluorophenyl)methyl]piperidine-4-carboxamide] | 700 | – | – | 2000 | –
11 | O=C(O)CC(O)(C(=O)O)C(O)C(=O)O (centres unmarked) [hydroxycitrate] | – | – | – | – | 30-40%

Further compounds by falling IC50 (INDY [1]), results first:

Row | IC50 (INDY [1]) [nM] | IC50 (GLUT1) [nM] | IC50 (GLT-1) [nM] | IC50 (INDY [2]) [nM] | Compound | inhibition of Indy (Indy [3])
12 | 600 | – | > 20000 | 1100 | O=C(NCc1ccccc1O)C1CCN(S(=O)(=O)c2ccc(C(F)(F)F)cc2)CC1 [Example 82, N-[(2-hydroxyphenyl)methyl]-1-[4-(trifluoromethyl)benzenesulfonyl]pipendine-4-carboxamide] | –
13 | 400 | – | > 20000 | 500 | O=C(NCc1ccccc1F)C1CCN(S(=O)(=O)c2ccc(OC(F)(F)F)cc2)CC1 [Example 29, N-[(2-fluorophenyl)methyl]-1-[4-(trifluoromethoxy)benzenesulfonyl]piperidine-4-carboxamide] | –
14 | 300 | – | > 20000 | 400 | O=C(NCc1ccccn1)C1CCN(S(=O)(=O)c2cc(Cl)cc(Br)c2)CC1 [Example 96, 1-(3-bromo-5-chlorobenzenesulfonyl)-N-[(pyridin-2-yl)methyl]piperidine-4-carboxamide] | –
15 | 100 | – | > 20000 | 200 | O=C(NCc1ccccc1O)C1CCN(S(=O)(=O)c2cc(Cl)cc(Cl)c2)CC1 [Example 79, 1-(3,5-dichlorobenzenesulfonyl)-N-[(2-hydroxyphenyl)methyl]pipendine-4-carboxamide] | –
16 | 100 | – | > 20000 | 400 | Nc1ccccc1CNC(=O)C1CCN(S(=O)(=O)c2cc(Cl)cc(Cl)c2)CC1 [Example 81, N-[(2-aminophenyl)methyl]-1-(3,5-dichlorobenzenesulfonyl)pipendine-4-carboxamide] | –
17 | 100 | – | > 20000 | 100 | O=C(NCc1ccccc1)C1CCN(S(=O)(=O)c2cc(Cl)cc(Cl)c2)CC1 [Example 103, N-benzyl-1-(3,5-dichlorobenzenesulfonyl)piperidine-4-carboxamide] | –

Reference: patent publication US20200087258A1, “INHIBITOR OF CITRATE TRANSPORTER AND THEIR USE IN THERAPY” (Eternygen GmbH, priority 2017, published 2020)
